Laboratory results reported in ChEMBL document CHEMBL1201862, “PubChem BioAssay data set” (2004).
Several values for one entry are separate records, joined by “and”; a condition that tells them apart may be missing. Equal entries are not always repeated. Activity calls are given as the source filed them.

Key:
[1] = target: T1, Rac GTPase-activating protein 1 (Homo sapiens, UniProt Q9H0H5); experiment: blockers of MgcRacGAP-driven Rac1 GTP hydrolysis – biochemical, ADP Hunter fluorescence, primary and confirmatory, confirmation (AID 624330); format: functional
T1 sequence (Q9H0H5 whole entry): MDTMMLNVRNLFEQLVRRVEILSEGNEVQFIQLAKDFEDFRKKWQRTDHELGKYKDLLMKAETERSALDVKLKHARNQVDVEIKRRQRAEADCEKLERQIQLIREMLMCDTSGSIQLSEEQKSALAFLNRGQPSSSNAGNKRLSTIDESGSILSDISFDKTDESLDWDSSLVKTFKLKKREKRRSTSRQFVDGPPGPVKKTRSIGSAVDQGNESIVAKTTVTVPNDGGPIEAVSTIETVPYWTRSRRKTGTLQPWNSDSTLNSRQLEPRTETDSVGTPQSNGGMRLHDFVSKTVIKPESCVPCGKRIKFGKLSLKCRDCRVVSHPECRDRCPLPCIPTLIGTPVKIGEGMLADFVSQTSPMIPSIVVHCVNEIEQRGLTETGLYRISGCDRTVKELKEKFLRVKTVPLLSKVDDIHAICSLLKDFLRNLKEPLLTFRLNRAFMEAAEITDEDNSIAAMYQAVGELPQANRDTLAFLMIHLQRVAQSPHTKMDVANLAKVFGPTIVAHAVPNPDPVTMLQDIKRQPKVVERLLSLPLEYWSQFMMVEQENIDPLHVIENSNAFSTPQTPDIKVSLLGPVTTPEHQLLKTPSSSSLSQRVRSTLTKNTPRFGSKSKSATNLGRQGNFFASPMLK

Protein RecA = target: T2, Protein RecA (Mycobacterium tuberculosis, UniProt P9WHJ3); experiment: Fluorescence Cell-Free Homogeneous Dose Retest to Identify Inhibitors of RecA-Intein Splicing Activity. [Related pubchem assays (depositor defined):AID2097, AID2223, AID489010, AID492950]; format: functional
T2 sequence (P9WHJ3 whole entry): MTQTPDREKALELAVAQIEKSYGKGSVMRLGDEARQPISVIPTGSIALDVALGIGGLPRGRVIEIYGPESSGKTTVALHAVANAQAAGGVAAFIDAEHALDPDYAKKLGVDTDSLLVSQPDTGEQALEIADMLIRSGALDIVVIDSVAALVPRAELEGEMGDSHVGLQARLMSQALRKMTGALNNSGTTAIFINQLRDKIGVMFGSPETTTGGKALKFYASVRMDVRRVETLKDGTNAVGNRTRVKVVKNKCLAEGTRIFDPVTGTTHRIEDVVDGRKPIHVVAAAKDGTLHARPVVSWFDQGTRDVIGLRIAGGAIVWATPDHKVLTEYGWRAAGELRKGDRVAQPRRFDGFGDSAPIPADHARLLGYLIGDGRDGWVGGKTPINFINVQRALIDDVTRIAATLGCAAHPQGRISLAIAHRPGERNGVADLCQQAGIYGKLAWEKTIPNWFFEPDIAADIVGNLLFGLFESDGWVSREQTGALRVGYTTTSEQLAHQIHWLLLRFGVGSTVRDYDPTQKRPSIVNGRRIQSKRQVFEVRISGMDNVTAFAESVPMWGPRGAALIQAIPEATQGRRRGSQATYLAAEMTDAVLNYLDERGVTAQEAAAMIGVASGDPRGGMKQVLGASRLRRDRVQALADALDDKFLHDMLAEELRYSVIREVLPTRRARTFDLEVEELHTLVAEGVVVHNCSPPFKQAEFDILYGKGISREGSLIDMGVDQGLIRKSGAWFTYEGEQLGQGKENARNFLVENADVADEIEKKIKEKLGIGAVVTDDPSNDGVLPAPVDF

BJ = experiment: cells; format: functional, cell-based; conditions: Homo sapiens
[2] = target: Intestinal-type alkaline phosphatase (Mus musculus, UniProt P24822); experiment: PubChem AID 488785; format: functional
[3] = target: T3, Sentrin-specific protease 7 (Homo sapiens, UniProt Q9BQF6); experiment: inhibition of human SENP7 cleavage activity – biochemical, luminescence, SAR follow-up (AID 504497); format: functional
T3 sequence (Q9BQF6 whole entry): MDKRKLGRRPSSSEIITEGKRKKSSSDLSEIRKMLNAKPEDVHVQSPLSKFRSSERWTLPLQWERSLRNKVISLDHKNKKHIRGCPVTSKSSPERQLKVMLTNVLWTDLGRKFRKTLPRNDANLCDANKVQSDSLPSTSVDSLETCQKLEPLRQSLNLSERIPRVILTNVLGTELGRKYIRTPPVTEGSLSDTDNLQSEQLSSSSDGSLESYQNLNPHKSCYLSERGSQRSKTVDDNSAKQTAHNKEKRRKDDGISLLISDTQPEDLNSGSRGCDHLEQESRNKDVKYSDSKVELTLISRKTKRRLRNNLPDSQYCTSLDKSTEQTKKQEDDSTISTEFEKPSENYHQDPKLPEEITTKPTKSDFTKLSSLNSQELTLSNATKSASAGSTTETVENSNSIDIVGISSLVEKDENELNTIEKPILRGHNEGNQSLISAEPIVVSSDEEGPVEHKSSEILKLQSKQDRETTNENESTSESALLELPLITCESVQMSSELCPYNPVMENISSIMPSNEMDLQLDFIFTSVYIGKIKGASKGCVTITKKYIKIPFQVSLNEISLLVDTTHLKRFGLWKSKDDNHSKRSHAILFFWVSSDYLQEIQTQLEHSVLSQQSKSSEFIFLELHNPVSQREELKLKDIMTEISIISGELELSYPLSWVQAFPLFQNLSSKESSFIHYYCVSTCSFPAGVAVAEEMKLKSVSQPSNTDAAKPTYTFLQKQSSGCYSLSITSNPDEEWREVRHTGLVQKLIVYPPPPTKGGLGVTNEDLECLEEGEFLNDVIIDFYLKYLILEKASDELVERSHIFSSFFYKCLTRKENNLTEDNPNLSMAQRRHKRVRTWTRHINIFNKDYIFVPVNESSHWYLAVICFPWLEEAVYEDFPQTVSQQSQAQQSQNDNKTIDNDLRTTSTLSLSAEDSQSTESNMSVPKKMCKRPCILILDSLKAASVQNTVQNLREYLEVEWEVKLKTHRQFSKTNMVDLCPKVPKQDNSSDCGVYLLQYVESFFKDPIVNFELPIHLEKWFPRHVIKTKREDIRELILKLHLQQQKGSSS

Intestinal-type alkaline phosphatase, sequence (P24822 whole entry): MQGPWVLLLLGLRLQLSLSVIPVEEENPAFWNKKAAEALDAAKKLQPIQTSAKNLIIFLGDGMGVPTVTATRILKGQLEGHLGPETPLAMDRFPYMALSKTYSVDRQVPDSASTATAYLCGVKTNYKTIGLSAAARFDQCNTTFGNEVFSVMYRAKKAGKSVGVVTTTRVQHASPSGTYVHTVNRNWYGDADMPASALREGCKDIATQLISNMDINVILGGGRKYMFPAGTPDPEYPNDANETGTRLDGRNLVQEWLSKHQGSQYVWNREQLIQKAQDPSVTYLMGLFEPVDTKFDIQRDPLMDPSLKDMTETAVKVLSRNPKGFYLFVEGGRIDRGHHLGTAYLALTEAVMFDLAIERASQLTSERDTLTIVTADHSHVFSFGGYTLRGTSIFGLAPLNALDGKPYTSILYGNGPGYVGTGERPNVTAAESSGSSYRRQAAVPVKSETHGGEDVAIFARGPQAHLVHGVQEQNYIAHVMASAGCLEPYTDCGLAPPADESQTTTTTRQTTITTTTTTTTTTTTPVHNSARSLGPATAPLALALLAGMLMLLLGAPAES

Structure (SMILES)	IC50 [1]	EC50 (Protein RecA)	EC50 (BJ)	IC50 [2]	IC50 [3]
Cc1cc2nc3ccc(N(C)C)cc3[s+]c2cc1N [TOLONIUM CHLORIDE]	32.4 µM (active)	28 µM (active)	7.39 µM (active)		
Oc1ccc(/C=N/Nc2cc(N3CCCC3)nc(N3CCCC3)n2)cc1O				1.51 µM (active)	58.1 µM (active) and 39.7 µM (active)
